Laboratory results published in patent publication US12628826B2, “Fungicidal composition” (UPL Corporation Limited, priority 2020, dated 2026).

How the values were obtained:
Aphanomyces euteiches = experiment: Potted plant trial, field pea, 2× rate of Aphanomyces infection (Example 2); conditions: ipconazole 2.5, carboxin 66.7, metalaxyl 6.7 g ai/100 kg, combination 500 ml/100 kg; for Root rot damage: 29 DAP
Method: The control consisted of seed inoculated with Aphanomyces and used water as the seed treatment. The experiment was performed in a controlled environment growth cabinet.
Culture: A 3-day old culture of Aphanomyces euteiches (3 days is when growth has fully encompassed plate) was used for 5 mm inoculation plug source (each plate received one 5 mm plug and four seeds)×4 reps.
Experimental design: 4 reps of each treatment (including controls), with each replication represented by 5 planted seeds for a total of 20 seeds per treatment were performed. All treatments received inoculum. Each seed is placed in a solitary location of a plant tray/flat that has 50 plugs per flat. One flat contained 2 treatments, separated by 10 plugs (2 rows of 5). Treatments 1 and 6 (controls) shared the same flat. The plug flats were placed in a collection tray that was not perforated and all watering was done with tap water from bottom up.
Culture media: 3 day old cultures of A. euteiches were grown on CYP (corn meal agar+yeast extract+phosphate buffer), amended with wheat leaf sections were transferred to 100 ml sterile distilled water in 250 ml flasks and shaken at 100 rpm in the dark at 23° C. for 18 hours for zoospore production.
Inducing Aphanomyces infection: Zoospores were counted and adjusted to a concentration of 1×10^4 spores, and 5 mls of this suspension was pipetted to the base of each plant on 4 DAP and again on 11 DAP (days after planting). This amounted to 50000 zoospores applied to the base of each plant at each inoculation timing. This was called 2× rate. The experiment was conducted in a growth cabinet at 23° C./22° C., 16 hrs light/8 hours dak.-root washing/rating of root darkening took place at 29 DAP which was 18 days after the second inoculation event or 25 days after the first inoculation event.

[1] = test system: Mycosphaerella pinodes and Ascochyta pinodella; experiment: Potted plant trial, pea, stem damage from seed borne root rot / ascochyta blight; conditions: ipconazole 2.5, carboxin 66.7, metalaxyl 6.7 g ai/100 kg, combination 500 ml/100 kg

Row | Compound | Root rot damage (Aphanomyces euteiches) | Plant height (cm) (Aphanomyces euteiches) | Seed emergence (%) (Aphanomyces euteiches) | Stem damage [1] [a 0-3 index/scale]
1 | CC1=C(C(=O)Nc2ccccc2)SCCO1 [Carboxin] | 0.6 bc 0-5 index/scale | 12.9 | 80.0 | 1.8
2 | CC(C)C1CCC(Cc2ccc(Cl)cc2)C1(O)Cn1cncn1 (stereo not shown) [Ipconazole] | 2.2 a 0-5 index/scale | 12.3 | 85.0 | 
3 | COCC(=O)N(c1c(C)cccc1C)C(C)C(=O)OC (stereo not shown) [Metalaxyl] | 0.7 bc 0-5 index/scale | 12.2 | 80.0 | 
